Usually TGI stands for the concentration at which net growth stops.

Experimental findings from PubChem BioAssay (NCI) are described below.

Molecules are shown by their SMILES.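 Values below derive from 48-hour exposures of cells grown in 96-well plates, with endpoints linearly interpolated between the two concentrations bracketing the appropriate inhibition level. The concentration for full growth arrest is given as TGI.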 Where a SMILES comes first, the peptide text is derived from it. [ ]: non-standard residue; d: D form. The star is where a group is joined. Iva = CC[C](C)(N)C(=O)O; Boc = CC(C)(C)OC(=O)*; X52 = C1CCC(=NO*)C1

Holding throughout (test): DTP human tumour cell line panel, 48 h
The test system of assay [1] is RPMI-8226 leukemia.
The subject of assay [2] is A498 renal.
Assay [3] concerns HOP-92 NSCLC.
For assay [4], the system named is NCI-H226 lung.
For assay [5], the system named is MOLT-4 leukemia.
Assay [6] has as its system HCT-116 colon.
Assay [7] relates to HOP-62 NSCLC.
Assay [8] has as its system U251 CNS.
The test system of assay [9] is IGROV1 ovarian.
The subject of assay [10] is UO-31 renal.
The subject of assay [11] is SNB-75 CNS.
Assay [12] concerns OVCAR-3 ovarian.
Assay [13] relates to NCI-H522 lung.
Assay [14] relates to SN12C renal.
Assay [15] has as its system CAKI-1 renal.
For assay [16], the system named is UACC-62 melanoma.
Assay [17] has as its system A549 NSCLC.
Assay [18] relates to SF-268 CNS.
For assay [19], the system named is SW-620 colon.
For assay [20], the system named is UACC-257 melanoma.

Consider `CCC(C)(NC(=O)C(C)NC(=O)OC(C)(C)C)C(=O)NC(C)C(=O)NC(C)(CC)C(=O)ON=C1CCCC1` (stereo not drawn) (Boc-A[Iva]A[Iva]-X52; configuration not given here), for which the TGI in [1], in assay [2], in assay [3], in [4], in [5] and in [6] was greater than 100 µM in each case. The TGI in [7], in assay [8], in assay [9], in [10], in assay [11] and in assay [12] was greater than 100 µM in each case. Also, the total growth inhibition concentration (TGI) in assay [13], in [14], in assay [15] and in assay [16] was greater than 100 µM in each case.
Consider `CCCC[C@H]1[C@@H](OCOc2ccccc2)COC(=O)N1[C@H](C)c1ccccc1`, for which the TGI is 60.1 µM in assay [1]; 29.4 µM in [2]; 54 µM in assay [3]; greater than 100 µM in assay [4]; 28.4 µM in assay [17]; greater than 60.4 µM in [5]. Moreover, the TGI in [6] was 20.8 µM; in assay [7], 29.8 µM; in assay [8], 42.3 µM; in assay [9] it was greater than 61.8 µM; in assay [10], greater than 45.1 µM; in assay [18], 38.7 µM. Further, the TGI in assay [11] is 26.9 µM; in [12], 27.8 µM; in assay [13], 29.2 µM; in assay [14] it was 21.9 µM; in assay [19], greater than 100 µM; in [20], 29.5 µM. Moreover, the TGI in [15] is 30.5 µM; in assay [16], 30.2 µM.
As for `O=P1(Oc2ccc(Cl)cc2Cl)Oc2ccc3ccccc3c2-c2c(ccc3ccccc23)O1`, the TGI in assay [1] is 48 µM; in [2], greater than 95.4 µM; in [3], 50.1 µM; in assay [4], 59.8 µM; in assay [17], greater than 100 µM; in assay [5], 55.6 µM. In addition, the TGI in [6] is greater than 75.1 µM; in assay [7], 40 µM; in assay [8], 47.5 µM; in assay [9] it was greater than 71.8 µM; in assay [10] it was 41.3 µM; in assay [18] it was greater than 100 µM. The TGI is 85 µM in assay [11]; 49.5 µM in [12]; 50.7 µM in [13]; greater than 100 µM in assay [14]; greater than 100 µM in assay [19]; greater than 100 µM in assay [20]. Further, the TGI in assay [15] was determined as 43.3 µM; in assay [16] it was 70.4 µM.
Consider `COc1ccc2cc3[nH]c(=O)cc(O)c3cc2c1OC`, for which the TGI in assay [1], in assay [2], in [3], in [4], in assay [17] and in assay [5] was greater than 100 µM each time. For the same compound, the TGI in [6], in assay [7], in [8], in assay [9], in assay [10] and in [18] was greater than 100 µM each time. Moreover, the TGI in [11], in assay [12], in [14], in assay [19], in assay [20] and in [15] was greater than 100 µM in each case. This compound registered a TGI in assay [16] greater than 100 µM.
As to `O=[N+]([O-])c1ccc(N=Nc2c(O)ccc3ccccc23)c([N+](=O)[O-])c1`, the TGI in assay [1], in [2], in assay [3], in assay [4], in [17] and in [5] was greater than 100 µM in each case. The TGI in assay [6], in assay [7], in assay [8], in assay [9], in [10] and in assay [18] was greater than 100 µM in each case. Further, the total growth inhibition concentration (TGI) in assay [11], in assay [12], in [13], in assay [14], in assay [19] and in [20] was greater than 100 µM throughout. Further, the TGI in assay [15] and in assay [16] was greater than 100 µM each time.
Take `C1CSCCSCCSCCSC1`: the TGI in [1], in assay [2], in [3], in assay [4], in [17] and in [5] was greater than 100 µM in each case. Further, the concentration for total growth inhibition (TGI) in [6], in [7], in assay [8], in assay [9], in assay [10] and in assay [18] was greater than 100 µM in each case. Besides, the TGI in assay [11], in assay [12], in assay [13], in assay [14], in assay [19] and in assay [20] was greater than 100 µM each time. Also, the TGI in [15] and in [16] was greater than 100 µM throughout.
Turning to `COc1ccc(C2SCC(=O)N2NC(=O)c2ccncc2)cc1F` (stereo not drawn), the TGI in assay [1], in [2], in assay [3], in assay [4], in assay [17] and in assay [6] was greater than 100 µM throughout. For the same compound, the TGI in [7], in assay [8], in assay [18], in assay [11], in assay [13] and in assay [14] was greater than 100 µM each time. Moreover, the TGI in assay [19], in assay [20] and in assay [15] was greater than 100 µM in each case.
For the compound `CCCCN1CN2C(=O)C(C(=O)OCC)C(=O)c3sc4nc(SC)nc1c4c32` (stereo not drawn), the TGI is 42.7 µM in assay [1]; 16.8 µM in assay [2]; 30.5 µM in assay [3]; 34 µM in assay [4]; 39.9 µM in [17]; 66.3 µM in assay [5]. In addition, the TGI is 30.6 µM in [6]; 30.5 µM in assay [7]; 33.7 µM in [8]; 33.5 µM in assay [9]; 37.4 µM in assay [10]; 39.8 µM in [18]. Besides, the TGI in assay [11] is 35.7 µM; in assay [12] it was 34.6 µM; in assay [13], 35.4 µM; in assay [14], 34.1 µM; in [19], 35.6 µM; in assay [20], 35.8 µM. Further, the TGI is 32.9 µM in [15] and 31.5 µM in assay [16].
For `COc1ccc(-c2c3c(cc4cc5c(cc24)OCO5)C(=O)OC3)cc1OC`, the TGI in assay [1] was 9.98 µM; in assay [2], greater than 49.6 µM; in assay [3] it was greater than 23.4 µM; in [4], 12.4 µM; in assay [17], greater than 100 µM; in assay [5] it was 20.4 µM. The TGI was 12.1 µM in assay [6]; 7.16 µM in assay [7]; 22 µM in assay [8]; greater than 100 µM in assay [9]; 14.1 µM in assay [10]; greater than 48 µM in assay [18]. For the same compound, the concentration for total growth inhibition (TGI) in [11] was 44.7 µM; in [12] it was 18.8 µM; in assay [13], 5.95 µM; in assay [14] it was greater than 53.1 µM; in assay [19] it was 11.7 µM; in assay [20] it was 5.05 µM. Also, the concentration for total growth inhibition (TGI) in [15] is greater than 63.4 µM; in assay [16], 1.84 µM.
With `O=C(Nc1ccccc1)c1cc2ccccc2c(N=Nc2ccc([N+](=O)[O-])cc2)c1O`, the TGI in assay [1], in assay [3], in [4], in assay [17], in assay [5] and in assay [6] was greater than 100 µM throughout. For the same compound, the concentration for total growth inhibition (TGI) in [7], in assay [8], in assay [9], in assay [10], in [18] and in assay [11] was greater than 100 µM throughout. Also, the TGI in assay [12], in assay [13], in [14], in [19], in [20] and in assay [15] was greater than 100 µM throughout. This compound came in with a TGI in assay [16] greater than 100 µM.
`CCCCCCCCCCCCCCCCCCN(C)C(COC)COP(=O)([O-])OCC[N+](C)(C)C` (stereo not drawn): the TGI in [1] was determined as 5.85 µM; in assay [2], 34.1 µM; in assay [3], 5.17 µM; in [4] it was 12.1 µM; in assay [17], 21.1 µM; in [5], 4.28 µM. Besides, the TGI in assay [6] was found to be 17 µM; in [7], 12.1 µM; in assay [8], 4.2 µM; in [9], 3.27 µM; in [10], 31.4 µM; in [18], 12.5 µM. Moreover, the TGI in assay [11] turned out to be 8.3 µM; in [12], 22.4 µM; in [13], 10.7 µM; in [14], 19.5 µM; in assay [19], 21.2 µM; in assay [20] it was 29.5 µM. For the same compound, the TGI turned out to be 15.7 µM in [15] and 19.2 µM in assay [16].
For the compound `COc1cc2cc3c4cc(OC)c(OC)cc4cc[n+]3cc2cc1OC`, the TGI is greater than 100 µM in assay [1]; greater than 100 µM in assay [2]; greater than 100 µM in assay [3]; greater than 100 µM in assay [4]; greater than 100 µM in assay [17]; greater than 96.8 µM in [5]. In addition, the TGI in [6], in assay [7], in assay [8], in assay [9], in assay [10] and in [18] was greater than 100 µM throughout. Besides, the TGI in assay [11] was greater than 100 µM; in assay [12], greater than 73.3 µM; in [13] it was greater than 100 µM; in assay [14], greater than 100 µM; in assay [19], greater than 100 µM; in assay [20], greater than 100 µM. For the same compound, the concentration for total growth inhibition (TGI) in [15] and in assay [16] was greater than 100 µM in each case.
Regarding `COc1ccc2nccc(SCC(=O)O)c2c1`, the TGI in assay [1], in assay [2], in assay [3], in assay [4], in assay [17] and in assay [5] was greater than 100 µM throughout. Besides, the TGI in assay [6], in assay [7], in assay [8], in [9], in assay [10] and in [18] was greater than 100 µM in each case. Besides, the TGI in [12], in assay [13], in assay [14], in assay [19], in [20] and in assay [15] was greater than 100 µM in each case. In assay [16], this compound showed a concentration for total growth inhibition (TGI) greater than 100 µM.
